Patent US8497370B2, “Processes for preparing amine salts of sildenafil-analogues and use thereof” (Kaohsiung Medical University, priority 2010, dated 2013)

Key:
Type in all cases: in vivo
C57BL/6J mice = experiment: The lipid-lowering effect in C57BL/6J mice (high-fat diet); details: HFD C57BL/6J mice, after 21 days, six mice per group
Experimental: 1. The Lipid-Lowering Effect in C57BL/6J Mice
8-week C57BL/6J mice are divided into standard diet (STD) group and the high-fat diet (HFD) group. In the HFD group, the Simvastatin (5 mg/kg), Sildenafil-Atorvastatinic acid complex salt, Sildenafil-Rosuvastatinic acid complex salt, Sildenafil-Simvastatinic acid complex salt (2.5 mg/kg) are separately administered orally. After 21 days, the amounts (mg/d1) of the triglyceride (TG), the total cholesterol (Tot.-C), the high density lipoprotein cholesterol (HDL-C), and the low density lipoprotein cholesterol (LDL-C) of six mice for each group are measured as shown in Tables 2.

TGF-β = experiment: Bleomycin (BM)-induced lung fibrosis in mice, TGF-β expression in tracheal irrigation solution by EIA; details: 60 mg/kg BM inhalation, *P < 0.05 vs control group
Experimental: 3. Sildenafil-Simvastatinic Acid Complex Salts Inhibit the Lung Fibrosis in Mice Induced by Bleomycin (BM) Mediated Via TGF-β Expression in Lung The increased amount of the synthetic collagen and the generation of the macrophage in alveolus may facilitate the formulation of transforming growth factor beta (TGF-β), and the expression of TGF-β is looked as a biomarker of the lung fibrosis. The simvastatin (5 mg/kg) and Sildenafil-Simvastatinic acid complex salts (2.5 mg/kg) are orally administered to the mice for inhibiting the lung fibrosis induced by TGF-β expression in tracheal irrigation solution that resulted from 60 mg/kg BM inhalation (Table 4). The state of the TGF-β expression in the irrigation solution is measured by the enzyme immunoassay (EIA).

[1] = tested on: male Wistar rats treated with MCT; experiment: Monocrotaline (MCT)-induced pulmonary arterial hypertension in rats, pulmonary artery blood pressure; details: for PABP: MCT (60 mg, intracutaneously)-treated male Wistar rats, 2.5 mg/kg/day p.o., MCT alone 25 ± 2.3, control 11 ± 1.4; for effect on pulmonary artery blood pressure (PABP), in words: MCT-treated male Wistar rats, 2.5 mg/kg orally every day
Text: 2. The Monocrotaline (MCT)-Treated Rats Show the Decreased Pulmonary Aterial Hypertension
Pulmonary aterial hypertension in MCT-treated rats is caused on day 21 after the intracutaneously injection.

Row | Compound | HDL-C (C57BL/6J mice; 5 mg/kg orally) [mg/d1] | LDL-C (C57BL/6J mice; 5 mg/kg orally) [mg/d1] | TG (C57BL/6J mice; 5 mg/kg orally) [mg/d1] | Tot.-C (C57BL/6J mice; 5 mg/kg orally) [mg/d1] | Changed amount of the lung TGF-β (TGF-β; 5 mg/kg orally) [%*] | HDL-C (C57BL/6J mice; 2.5 mg/kg orally) [mg/d1] | LDL-C (C57BL/6J mice; 2.5 mg/kg orally) [mg/d1] | TG (C57BL/6J mice; 2.5 mg/kg orally) [mg/d1] | Tot.-C (C57BL/6J mice; 2.5 mg/kg orally) [mg/d1] | PABP [1] [mmHg] | effect on pulmonary artery blood pressure (PABP), in words [1] | Changed amount of the lung TGF-β (TGF-β; 2.5 mg/kg orally) [%*]
1 | CCC(C)(C)C(=O)O[C@H]1C[C@@H](C)C=C2C=C[C@H](C)[C@H](CC[C@@H]3C[C@@H](O)CC(=O)O3)[C@H]21 [Simvastatin, reference compound] | 103.18 ± 2.5 | 15.3 ± 1.3 | 82.67 ± 6.3 | 133.67 ± 4.3 | 40 ± 4.3 |  |  |  |  |  |  | 
2 | Sildenafil-Atorvastatinic acid complex salt |  |  |  |  |  | 97.6 ± 2.8 | 16.8 ± 1.8 | 79.2 ± 4.6 | 130.7 ± 1.7 |  |  | 
3 | Sildenafil-Rosuvastatinic acid complex salt |  |  |  |  |  | 103.4 ± 1.5 | 15.2 ± 1.7 | 83.2 ± 5.3 | 131.7 ± 1.6 |  |  | 
4 | Sildenafil-Simvastatinic acid complex salt |  |  |  |  |  | 102.4 ± 2.3 | 17.3 ± 1.4 | 81.2 ± 4.4 | 129.7 ± 1.4 | 12 ± 1.5 | decreasing the pulmonary artery blood pressure | 43 ± 1.8
5 | Sildenafil-γ-Polyglutamate complex |  |  |  |  |  |  |  |  |  | 11 ± 0.8 | decreasing the pulmonary artery blood pressure | 
